Counter-ions that a name gives are not always drawn. Like-named read-outs stand apart in the source and are kept apart here.
Key:
[1] = Maximal electroshock (MES)-induced convulsions in mice; format: in vivo; conditions: for ED50: Mus musculus, ip, 0.5 h, read-out: MES ED50; for MES ED50: 30 min
Procedure: (§1) NMR female mice (18-28 g) housed 5 per cage were used for the maximal electroshock (MES) and motor impairment tests. […] All compounds were dissolved in 0.9% saline.
(§2) The MES test was performed together with tests for myorelaxant action (traction reflex) and motor coordination (rotarod). For the traction reflex test mice were placed with their forepaws on a horizontal rod and were required to place all 4 paws on the wire within 10 seconds. To test ataxia (motor coordination) mice were placed on rotarod (5 rpm) and were required to remain on the rod for 1 minute. […] These tests were followed by MES (100 Hz, 0.5 second shock duration, 50 mA shock intensity, 0.9 ms impulse duration, Ugo Basile) applied through corneal electrodes. The presence of tonic convulsions was scored (tonic extension of hind paws with minimum angle to the body of 90°). The aim was to obtain ED50 s for all parameters scored (anticonvulsive activity and motor side effects) with use of the Litchfield Wilcoxon test for quantal dose responses. Division of the ED50 for side effects (ataxia or myorelaxation) by the ED50 for antagonism of electroshock convulsions was used as a therapeutic index (TI). […]

cortical neurones = test: Excitotoxicity: glutamate toxicity in cultured cortical neurones (MTT); format: cell-based, rat; conditions: Rattus norvegicus, Cortical neurone
Procedure: Cortical neurones were obtained from cerebral cortices of 17/18 day old fetal rats (Wistar), in general following the dissociation procedure described by. After short trypsinization and gentle trituration with fire-polished Pasteur pipettes, the cell suspension was washed by centrifugation. Cells were suspended in serum-free Neurobasal medium with B27 supplement (GIBCO) before plating onto poly-L-lysine (Sigma; 0.2 mg/ml, 20 h, 4° C.) and laminin (Sigma; 2 μg/ml, 1 h, 37° C.)-coated 96-well plates (Falcon, Primaria) at a density of 5×10^4 cells/well. Cortical neurones were maintained at 37° C. in humidified 10% CO2 /90% air. […] The medium was changed first after 4 days in vitro and then every 4 days by replacing 2/3 of the medium with astrocyte-conditioned medium. Cortical neurones between day 12 and 14 in culture were used for the experiments.
New-born rat astrocytes were isolated non-enzymatically according to the method of [24]. Briefly, both hemispheres were dissected from 2-day-old rats, passed through an 80 μm gauze, and triturated with Pasteur pipettes. Cell suspension was made in Dulbecco's modified essential medium (DMEM, Gibco) supplemented with 10% fetal calf serum (FCS, Hyclone), 2 mM glutamine (Gibco) and 50 μg/ml gentamycin and transferred into untreated, plastic culture flasks (Corning; […]). Two days after plating the flasks were shaken for 10 minutes on a rotary platform (150 U/min) to remove microglial cells. The cultures were grown to confluency within 14 days, and the culture medium was changed twice weekly. Thereafter, the glial monolayers were extensively washed with serum-free Neurobasal medium (Gibco) to remove the serum. Flasks were then shaken several times to remove oligodendrocytes and neurones. To obtain conditioned medium from primary astrocytes, the cultures were incubated with fresh Neurobasal medium supplemented with B27 andglutamine. Every 2-3 days the conditioned medium was collected and replaced by fresh medium up to 4 times.
Exposure to EAA was performed in serum-free Neurobasal medium containing 100 μM glutamate and the drug to be tested. After 20 h of incubation, the cytotoxic effect was morphologically examined under a phase contrast microscope and biochemically quantified by measuring cell viability with the MTT test (Promega). This calorimetric assay measures the reduction of a tetrazolium component (MTT) into an insoluble formazan product by the mitochondria of living cells. After incubation of the cortical neurones with the dye solution for approximately 1-4 hours, a solubilization solution was added to lyse the cells and solubilize the colored product (incubation overnight at 37° C., 10% CO2, 90% RH). These samples were then read using an Elisa plate reader (Thermomax, MWG Biotech) at a wavelength of 570 nm. The amount of color produced was directly proportional to the number of viable cells.
(§3) IC50 s in patch clamp, excitotoxicity, and binding studies were calculated according to the four parameter logistic equation using the Grafit computer program (Erithacus Software, England). Ki value for binding studies were then determined according to Cheng and Prusoff. Binding values presented are means±SEM of 3-5 determinations (each performed in duplicate). […] Pearson product moment correlation analysis (Sigma Stat, Jandel Scientific) was used to compare in vitro potencies and in vivo anticonvulsant activity.

[2] = cited from earlier work; for side effects in humans: human, in vivo
NMDA receptor [3] = test: Patch clamp: NMDA-induced inward currents in cultured hippocampal neurones; format: cell-based, rat
Procedure: Hippocampi were obtained from rat embryos (E20 to E21) and were then transferred to calcium and magnesium free Hank's buffered salt solution (Gibco) on ice. Cells were mechanically dissociated in 0.05% DNAase/0.3% ovomucoid (Sigma) following an 8 minute pre-incubation with 0.66% trypsin/0.1% DNAase (Sigma). The dissociated cells were then centrifuged at 18 ×g for 10 minutes, re-suspended in minimum essential medium (Gibco) and plated at a density of 150,000 cells cm^-2 onto poly-L-lysine (Sigma)-precoated plastic petri dishes (Falcon). The cells were nourished with NaHCO3 /HEPES-buffered minimum essential medium supplemented with 5% fetal calf serum and 5% horse serum (Gibco) and incubated at 37° C. with 5% CO2 at 95% humidity. […] Thereafter the medium was exchanged partially twice weekly.
Patch clamp recordings were made from these neurones with polished glass electrodes (4-6 m.OMEGA.) in the whole cell mode at room temperature (20-22° C.) with the aid of an EPC-7 amplifier (List). Test substances were applied by switching channels of a custom-made fast superfusion system with a common outflow (10-20 ms exchange times). The contents of the intracellular solution were as follows (mM): CsCl (120), TEACl (20), EGTA (10), MgCl2 (1), CaCl2 -(0.2), glucose (10), ATP(2), cAMP (0.25); pH was adjusted to 7.3 with CsOH or HC1. The extracellular solutions had the following basic composition (mM): NaCl (140), KCl (3), CaCl2 (0.2), glucose (10), HEPES (10), sucrose (4.5), tetrodotoxin (TTX 3*10^-4). Glycine (1 μM) was present in all solutions: a concentration sufficient to cause around 80-85% activation of glycineB receptors. Only results from stable cells were accepted for inclusion in the final analysis, i.e., following recovery of responses to NMDA by at least 75% of their depression by the antagonists tested.
as §3

[4] = Procedure: All animals were kept with water and food ad libitum under a 12 hour light-dark cycle (light on at 6 a.m.) and at a controlled temperature (20±0.5° C.). All e experiments were performed between 10 a.m. and 5 p.m. Tested agents were injected 30 min. i.p. before the induction of convulsions if not stated otherwise (see below). All compounds were dissolved in 0.9% saline.
NMDA receptor [5] = test: [3H]-(+)-MK-801 binding to rat cortical membranes; conditions: read-out: MK-801 Ki; Table 9; Cheng-Prusoff with Kd for MK-801 of […]
Procedure: Male Sprague-Dawley rats (200-250 g) were decapitated and their brains were removed rapidly. The cortex was dissected and homogenized in 20 volumes of ice-cold 0.32 M sucrose using a glass-Teflon homogenizer. The homogenate was centrifuged at 1000 ×g for 10 minutes. The pellet was discarded and the supernatant centrifuged at 20,000 ×g for 20 minutes. The resulting pellet was re-suspended in 20 volumes of distilled water and centrifuged for 20 minutes at 8000 ×g. Then the supernatant and the buffy coat were centrifuged three times (48,000 ×g for 20 minutes) in the presence of 50 mM Tris-HCl, pH 8.0. All centrifugation steps were carried out at 4° C. After resuspension in 5 volumes of 50 mM Tris-HCl, pH 8.0 the membrane suspension was frozen rapidly at -80° C. On the day of assay the membranes were thawed and washed four times by resuspension in 50 mM Tris-HCl, pH 8.0 and centrifugation at 48,000 ×g for 20 minutes. The final pellet was suspended in assay buffer. The amount of protein in the final membrane preparation was determined according to the method of Lowry with some modifications. The final protein concentration used for our studies was between 250-500 μg/ml.
Membranes were re-suspended and incubated in 50 mM Tris-HCl, pH 8.0. […] Incubations were terminated using a Millipore filter system. The samples were rinsed three times with 2.5 ml ice cold assay buffer over glass fiber filters obtained from Schleicher & Schuell under a constant vacuum. Filtration was performed as rapidly as possible. Following separation and rinse, the filters were placed into scintillation liquid (5 ml; Ultima Gold) and radio activity retained on the filters was determined with a conventional liquid scintillation counter (Hewlett Packard, Liquid Scintillation Analyser).
as §3

[6] = Rotarod test (motor coordination, ataxia) in mice, therapeutic index versus MES; format: in vivo; conditions: mouse, in vivo, ip; ED50 for rotarod failure divided by ED50 for MES; read-out: TI Rot.
Procedure: All compounds were dissolved in 0.9% saline.
The MES test was performed together with tests for myorelaxant action (traction reflex) and motor coordination (rotarod). For the traction reflex test mice were placed with their forepaws on a horizontal rod and were required to place all 4 paws on the wire within 10 seconds. To test ataxia (motor coordination) mice were placed on rotarod (5 rpm) and were required to remain on the rod for 1 minute. […] These tests were followed by MES (100 Hz, 0.5 second shock duration, 50 mA shock intensity, 0.9 ms impulse duration, Ugo Basile) applied through corneal electrodes. The presence of tonic convulsions was scored (tonic extension of hind paws with minimum angle to the body of 90°). The aim was to obtain ED50 s for all parameters scored (anticonvulsive activity and motor side effects) with use of the Litchfield Wilcoxon test for quantal dose responses. Division of the ED50 for side effects (ataxia or myorelaxation) by the ED50 for antagonism of electroshock convulsions was used as a therapeutic index (TI).
as §3, with “Prusoff.” for “Prusoff. Binding values presented are means±SEM of 3-5 determinations (each performed in duplicate).”

[7] = Traction reflex test (myorelaxant action) in mice, therapeutic index versus MES; format: in vivo; conditions: ED50 for traction reflex impairment divided by ED50 for MES
Procedure: as §1, §2

[8] = Table 8, mice, i.p., 95% confidence limits in parentheses
[9] = 20 h, read-out: Glut. Tox. IC50
[10] = read-out: Patch Clamp IC50; Table 7; NMDA 200 μM with glycine 1 μM at -70 mV
[11] = read-out: Patch Clamp IC50; Table 9; NMDA-induced currents

NC12CC3CC(CC(C3)C1)C2 [Amantadine, reference compound]
ED50 [1]: 184 mg/kg
MES ED50 [1, 8]: 184.0 (122-279) mg/kg
IC50 (cortical neurones; [9]): 20700 nM
IC50 (cortical neurones; read-out: Glut Tox IC50): 36900 nM
side effects in humans [2]: rarely produce side effects at the therapeutic doses
IC50 (NMDA receptor [3]; [10]): 71000 nM
IC50 (NMDA receptor [3]; [11]): 80800 nM

C[C@]12N[C@H](Cc3ccccc31)c1ccccc12 [MK-801, (+)-5-methyl-10,11-dihydro-5H-dibenzocyclohepten-5,10-imine maleate, reference compound]
ED50 [1]: 0.16 mg/kg
MES ED50 [1, 8]: 0.16 (0.13-0.21) mg/kg
IC50 (cortical neurones; [9]): 12 nM
IC50 (cortical neurones; read-out: Glut Tox IC50): 13 nM
side effects in humans [2]: some psychotropic side effects were apparent at therapeutic doses
therapeutic efficacy in epilepsy ([2]; initial clinical experience): poor
Min Lethality ([4]; i.p., minimal lethal dose): > 108 mg/kg

CC1(C)CC(C)(C)CC(C)(N2CCCC2)C1.Cl [MRZ 2/705, N-(1,3,3,5,5-Pentamethylcyclohexyl) pyrrolidine hydrochloride]
Ki (NMDA receptor [5]): 7140 nM
selectivity ratio at 0.5 h [6]: 5.4
selectivity ratio at 0.5 h ([7]; mouse, in vivo, ip, read-out: TI Tract): 3.9
Min Lethality ([4]; i.p., minimal lethal dose): > 50 mg/kg

CC1(C)CC(C)(C)CC(C)(CCN)C1 [Mrz 2/662]
Ki (NMDA receptor [5]): 3440 nM
ED50 [1, 8]: 30.5 mg/kg
IC50 (cortical neurones; Table 9, 100 μM glutamate, read-out: Glut Tox IC50): 530 nM
TI Tract ([7]; 30 min): 1.0
IC50 (NMDA receptor [3]; Table 9; NMDA-induced currents; read-out: Patch Clamp IC50): 1500 nM
Min Lethality ([4]; mouse, in vivo, ip): > 40 mg/kg

From patent US6034134A, “1-Amino-alkylcyclohexane NMDA receptor antagonists” (Merz + Co. GmbH & Co., priority 1998, dated 2000)
